Results taken from patent US12240846B2 (Enliven Inc., priority 2020, dated 2025).

Experiments:
K562 cells = assay: K562 cell proliferation assay (CellTiter-Glo); format: cell-based; details: Homo sapiens, K562 cell viability, 72 hours, read-out: Cell Line (IC50, nM) K562
HL60 cells = assay: HL60 cell proliferation assay (CellTiter-Glo); format: cell-based; details: Homo sapiens, HL-60, HL60 cell viability, 72 hours, read-out: Cell Line (IC50, nM) HL60
ABL1 = target: T1, ABL1 (Homo sapiens, UniProt P00519); assay: Luminescence-based ABL kinase assay (300 μM ATP), ADP-Glo; format: biochemical
T1 construct: purchased Carna Biosciences
From the text: Compounds were serially diluted in DMSO. […] Luminescence signal positively correlates with kinase activity.

ABL1 (T315I) = ABL1 (T315I) (Homo sapiens, UniProt P00519, T315I); assay: as above; format: biochemical
pCRKL in K562 cells = assay: pCRKL ELISA assay in K562 cells; format: cell-based; details: Homo sapiens, 1.5 h, 90 minutes incubation, read-out: pCRKL ELISA, Cell Line IC50 (nM) K562
Experimental: (§1) K562 or Ba/F3 ABL T315I cells (2.0*10^5 cells/100 μl/well) were seeded in 96 well (Corning, cat #3799). Compounds were dissolved in DMSO, serially diluted in DMSO and then were added, mixed, and incubated for 90 minutes at 37° C., 5% CO2. Following the 90-minute incubation, plates were centrifuged for 5 min at 3000 RPM and supernatant was removed from each well. Cells were washed 3 times with 150 μl PBS prior to addition of 100 μl cell RIPA lysis buffer (Boston BioProducts, cat #BP-115D) supplied with 1× complete ULTRA cocktail inhibitor (Roche, 05892791001) and 1× PhosSTOP Phosphatase Inhibitor Cocktail Tablets (Roche, 04906837001). Cells were incubated with lysis buffer for 1 hour at 4° C. prior to storage at −80C.
(§2) A capture antibody able to detect phosphorylated and non-phosphorylated CRKL (R&D Systems, cat #AF5127) was added to Meso Scale Discovery (MSD) standard bind plates (MSD, cat #L15XA-3) at 5 ug/mL and incubated at 4° C. overnight. The next day, plates were washed with PBS+ 0.05% Tween20 (PBST) and 150 μl of 5% BSA blocking solution was added for 1 hour at room temperature with shaking. Plates were washed with PBST. Lysates were thawed and 30 μl of lysate was added to the MSD plates and incubated for 2 hours at room temperature with shaking. MSD plates were washed with PBST and 30 μl of a detection antibody that binds phosphorylated pCRKL (R&D Systems, cat #MAB6910) was added at 1 ug/mL to each well. Plates were incubated for 1 hour at room temperature with shaking. Plates were washed with PBST prior to addition of 30 μl of a sulfo tagged goat anti mouse detection antibody (MSD cat #R32AC-1). Plates were incubated for 1 hour at room temperature with shaking. Plates were washed with PBST prior to addition of 150 ul of 1×MSD read buffer T (MSD, cat #R92TC-2). Electrochemiluminescence (ECLU) was read on an MSD plate reader (Meso Scale Discovery). The remaining activity by calculated as follows: % Relative activity=100× (ELCUsample−ECLULC)/(ECLUHC−ECLULC). The low and high controls (LC/HC) are generated from lysate from wells without cells or with cells treated with 0.1% DMSO, respectively. IC50 values were calculated using XLFit software using a nonlinear regression model with a sigmoidal dose response and are shown in Table 4 and Table 5 below.

[1] = system: pCRKL in Ba/F3 ABL1 (T315I) cells; assay: pCRKL ELISA assay in Ba/F3 ABL1 (T315I) cells; format: cell-based; details: Mus musculus, BaF3, 1.5 h, 90 minutes incubation, read-out: pCRKL ELISA, Cell Line IC50 (nM) Ba/F3 ABL1 (T315I)
Experimental: as §1, §2

| SMILES | IC50 (K562 cells) [nM] | IC50 (HL60 cells) [nM] | IC50 (ABL1) [nM] | IC50 (ABL1 (T315I)) [nM] | IC50 (pCRKL in K562 cells) [nM] | IC50 [1] [nM] |
| --- | --- | --- | --- | --- | --- | --- |
| COc1ncc(F)cc1-c1cc2cc(NC(=O)[C@@H]3C[C@@H]3F)ncc2n1C [Compound 76, (1S,2S)-2-fluoro-N-[2-(5-fluoro-2-methoxypyridin-3-yl)-1-methylpyrrolo[2,3-c]pyridin-5-yl]cyclopropane-1-carboxamide] | 200 | 6240 | 46.7 | 55.4 | 326 | 194 |
| COc1cc(C)nc(OC)c1-c1cc2cc(NC(=O)[C@@H]3C[C@@H]3F)ncc2n1C [Compound 98, (1S,2S)-N-(2-(2,4-dimethoxy-6-methylpyridin-3-yl)-1-methyl-1H-pyrrolo[2,3-c]pyridin-5-yl)-2-fluorocyclopropane-1-carboxamide] | 63 | 605 | 11.6 | 38.8 | 99.4 | 253 |
| COc1nc(N)nc(OC)c1-c1cc2cc(NC(=O)[C@@H]3C[C@@H]3F)ncc2n1C [Compound 103, (1S,2S)-N-(2-(2-amino-4,6-dimethoxypyrimidin-5-yl)-1-methyl-1H-pyrrolo[2,3-c]pyridin-5-yl)-2-fluorocyclopropane-1-carboxamide] | 17.7 | 385 | 3.98 | 7.85 | 35.5 | 172 |
